The values that follow come from patent publication US9833506B2, “Vaccine—screening method” (priority 2011, dated 2017).

Common to all, as to type: cell-based, human
Assay [1] deals with CD4+ T cell lines killing peptide pulsed autologous EBV-transformed B cell lines. Nature of the assay: Chromium release assay, perforin-dependent cytotoxicity of CD4+ T cell lines. The note with it: CD4+ T cells incubated 2 h with 100 nM concanamycin; 51Cr release; FIG. 7b.
In assay [2] the test system is T cells in PBMC of H3N2 (A/Wisconsin/67/05) challenge study subjects. The note with it: for SFC/million PBMC (range): IFN-γ ELISPOT, peptide 2 μg/ml, 300,000 PBMC/well, background subtracted; for SFC/million PBMC (range) / CD4 or CD8 dependency: baseline samples; for CD4 or CD8 dependency: second ELISPOT after CD8 depletion, 4 = CD4, 8 = CD8; for Number positive (%): percent of subjects responding to the peptide at baseline; for Number positive: subjects responding to the peptide at baseline, of 8 subjects with peptides identified.

The test system of assay [3] is T cells in PBMC of H1N1 (A/Brisbane/59/07) challenge study subjects. Particulars: for SFC/million PBMC (range): IFN-γ ELISPOT, peptide 2 μg/ml, 300,000 PBMC/well, background subtracted; for Positive no(%): percent of subjects responding to the peptide at baseline; for Positive no: subjects responding to the peptide at baseline, of 7 subjects.
[4] abbreviates: baseline samples, second ELISPOT after CD8 depletion, 4 = CD4, 8 = CD8.

Read-outs that look alike come from different tables or passages of the source.

In the case of `C/C=C/[C@H]1O[C@@](O)([C@@H](C)[C@H](O)[C@H](C)[C@H]2OC(=O)/C(OC)=C/C(C)=C/[C@@H](C)[C@@H](O)[C@@H](CC)[C@@H](O)[C@H](C)C/C(C)=C/C=C/[C@@H]2OC)C[C@@H](O)[C@@H]1C` [concanamycin], in assay [1], the “Sensitivity of CD4 T cell killing of autologous target cells to concanamycin” value is on record as “sensitive”.

Consider EIRASVGKMIDGIGRFYI [NP05], for which, in assay [2], the “SFC/million PBMC (range)” value is recorded as 141.5 (35-248) SFC/million PBMC, the “CD4 or CD8 dependency” value amounted to 4, the “Number positive (%)” value is given as 26% and the Number positive amounted to 2.

Take GENGRKTRIAYERMCNIL [NP27]: in assay [3], the “CD4 or CD8 dependency” value is 8; the “SFC/million PBMC, days after challenge 7” value was 157 SFC/million PBMC; the “SFC/million PBMC, days after challenge 28” value is reported as 10 SFC/million PBMC; the “SFC/million PBMC, days after challenge −2” value is listed as 30 SFC/million PBMC. In assay [3], the “Positive no(%)” value came to 14% and the Positive no was 1. For the same compound, the “SFC/million PBMC (range)” value in assay [3] (baseline samples) is reported as 30 SFC/million PBMC. In addition, the “CD4 or CD8 dependency” value in assay [3] (setting [4]) is recorded as 8.

Take GKWMRELVLYDKEEIRRI [NP15]: in assay [2], the “SFC/million PBMC (range)” value is 93 (45-141) SFC/million PBMC, the “CD4 or CD8 dependency” value was determined as 4, the “Number positive (%)” value is reported as 26% and the Number positive is 2.

Regarding GQTSVQPTFSVQRNLPF [NP57], in assay [2], the “SFC/million PBMC (range)” value was 10 SFC/million PBMC, the “CD4 or CD8 dependency” value turned out to be 4, the “Number positive (%)” value is reported as 13% and the Number positive was 1.

As to HRSHRQMVATTNPLIKH [Peptide M23], in assay [2], the “SFC/million PBMC (range)” value is 158 SFC/million PBMC, the “CD4 or CD8 dependency” value is on record as 4, the “Number positive (%)” value came to 13% and the Number positive is listed as 1.

For the compound “IAYERMCNILKGKFQTAA (Influenza A virus) [NP28, synthetic peptide of H1N1 influenza A NP protein, amino acid position 217-234]”, in assay [3], the “CD4 or CD8 dependency” value is 8; the “SFC/million PBMC, days after challenge 7” value is recorded as 67 SFC/million PBMC; the “SFC/million PBMC, days after challenge 28” value is 10 SFC/million PBMC; the “SFC/million PBMC, days after challenge −2” value came out at 40 SFC/million PBMC. Also, in assay [3], the “Positive no(%)” value is 14% and the Positive no came out at 1. The “SFC/million PBMC (range)” value in assay [3] (baseline samples) is recorded as 40 SFC/million PBMC. The “CD4 or CD8 dependency” value in assay [3] (setting [4]) was 8.

“IKHENRMVLASTTAKAM (Influenza A virus) [Peptide M25, synthetic peptide of H3N2 influenza A M protein, amino acid position 173-189]”: in assay [2], the “SFC/million PBMC (range)” value is recorded as 118 SFC/million PBMC, the “CD4 or CD8 dependency” value was determined as 4, the “Number positive (%)” value was 13% and the Number positive is 1.

For “KFQTAAQRAMVDQVRESR (Influenza A virus) [NP32, synthetic peptide of H3N2 influenza A NP protein, amino acid position 229-246]”, in assay [2], the “SFC/million PBMC (range)” value amounted to 104 SFC/million PBMC, the “CD4 or CD8 dependency” value is reported as 8, the “Number positive (%)” value worked out at 13% and the Number positive was 1.

Consider KLSDHEGRLIQNSLTIEK [NP08], for which, in assay [2], the “SFC/million PBMC (range)” value came out at 26 SFC/million PBMC, the “CD4 or CD8 dependency” value was 4, the “Number positive (%)” value is 13% and the Number positive came to 1.

As to LKREITFHKAKEIALSY [Peptide M15], in assay [2], the “SFC/million PBMC (range)” value was 67 (35-96) SFC/million PBMC, the “CD4 or CD8 dependency” value was 4, the “Number positive (%)” value is reported as 38% and the Number positive is reported as 3.

For the compound PIYRRVDGKWMRELVLY [NP14], in assay [2], the “SFC/million PBMC (range)” value is listed as 113 (45-181) SFC/million PBMC, the “CD4 or CD8 dependency” value was determined as 4, the “Number positive (%)” value is given as 26% and the Number positive stood at 2.

With QPTFSVQRNLPFDKTTIM [NP52], the “SFC/million PBMC (range)” value in assay [3] (baseline samples) is 26 SFC/million PBMC. The “CD4 or CD8 dependency” value in assay [3] (setting [4]) is reported as 4. Also, in assay [3], the “Positive no(%)” value worked out at 14% and the Positive no is 1. Moreover, the “CD4 or CD8 dependency” value in assay [3] (subject B017(2C)) came to 4. In addition, the “SFC/million PBMC, days after challenge 7” value in assay [3] (subject B017(2C), day 7) is 76 SFC/million PBMC. Moreover, in assay [3] (subject B017(2C), day 28), the “SFC/million PBMC, days after challenge 28” value was determined as 10 SFC/million PBMC. Moreover, in assay [3] (subject B017(2C), day −2), the “SFC/million PBMC, days after challenge −2” value is recorded as 26 SFC/million PBMC.

Consider “RMVLSAFDERRNKYLEEH (Influenza A virus) [NP09, synthetic peptide of H1N1 influenza A NP protein, amino acid position 65-82]”, for which, in assay [3], the “CD4 or CD8 dependency” value was 4; the “SFC/million PBMC, days after challenge 7” value is reported as 187 SFC/million PBMC; the “SFC/million PBMC, days after challenge 28” value was 113 SFC/million PBMC; the “SFC/million PBMC, days after challenge −2” value was 38 SFC/million PBMC. In assay [3], the “Positive no(%)” value was determined as 14% and the Positive no is 1. Also, the “SFC/million PBMC (range)” value in assay [3] (baseline samples) was determined as 38 SFC/million PBMC. Also, in assay [3] (setting [4]), the “CD4 or CD8 dependency” value is 4.

Regarding “SNLNDATYQRTRALVR (Influenza A virus) [NP20, synthetic peptide of H3N2 influenza A NP protein, amino acid position 141-156]”, in assay [2], the “SFC/million PBMC (range)” value is on record as 391 SFC/million PBMC, the “CD4 or CD8 dependency” value was 8, the “Number positive (%)” value came out at 13% and the Number positive came out at 1.

Turning to TFSVQRSLPFEKSTIMAA [NP58], in assay [2], the “SFC/million PBMC (range)” value is reported as 10 SFC/million PBMC, the “CD4 or CD8 dependency” value worked out at 4, the “Number positive (%)” value turned out to be 13% and the Number positive is given as 1.

In the case of “TYQRTRAVLRTGMDPRM (TYQRTRALVRTGMDPRM; Influenza A virus) [NP21, synthetic peptide of H3N2 influenza A NP protein, amino acid position 147-163]”, in assay [2], the “SFC/million PBMC (range)” value is recorded as 331 SFC/million PBMC, the “CD4 or CD8 dependency” value was 8, the “Number positive (%)” value is reported as 13% and the Number positive amounted to 1.

For “VKLYRKLKREITFHGAKE (Influenza A virus) [Peptide M13, synthetic peptide of H1N1 influenza A M protein, amino acid position 97-114]”, the “CD4 or CD8 dependency” value in assay [3], in assay [3] (setting [4]) and in assay [3] (subject B017(2C)) was 4 in each case. The “SFC/million PBMC, days after challenge 7” value came to 70 SFC/million PBMC in assay [3] and 316 SFC/million PBMC in assay [3] (subject B017(2C), day 7). Besides, the “SFC/million PBMC, days after challenge 28” value in assay [3] turned out to be 10 SFC/million PBMC; in assay [3] (subject B017(2C), day 28) it was 33 SFC/million PBMC. Further, the “SFC/million PBMC, days after challenge −2” value in assay [3] is 30 SFC/million PBMC; in assay [3] (subject B017(2C), day −2), 52 SFC/million PBMC. Also, the “SFC/million PBMC (range)” value in assay [3] (baseline samples) is reported as 41 (30-52) SFC/million PBMC. Further, in assay [3], the “Positive no(%)” value is recorded as 28%. Further, the Positive no in assay [3] was 2.
